# Test results taken from ChEMBL document CHEMBL5352508, “Discovery and Structure-Based Design of Inhibitors of the WD Repeat-Containing Protein 5 (WDR5)-MYC Interaction” (J Med Chem, 2023).
# Calls of active or inactive are those of the source. The rule behind the calls is not given here.
# Assays:
# COR-L279 = test: Antiproliferative activity against human COR-L279 cells assessed as cell growth inhibition measured after 72 hrs by CellTier-Glo assay; assay type: functional
# Daudi = test: Antiproliferative activity against human Daudi cells assessed as cell growth inhibition measured after 72 hrs by CellTier-Glo assay; assay type: functional
# Ramos = test: Antiproliferative activity against human Ramos cells assessed as cell growth inhibition measured after 72 hrs by CellTier-Glo assay; assay type: functional
# NB-4 = test: Antiproliferative activity against human NB4 cells assessed as cell growth inhibition measured after 72 hrs by CellTier-Glo assay; assay type: functional
# HL-60 [1] = test: Antiproliferative activity against human HL-60 cells assessed as cell growth inhibition measured after 72 hrs by CellTier-Glo assay; assay type: functional
# WDR5-MYC [2] = target: T1, WDR5-MYC (Homo sapiens, UniProt P61964); test: Inhibition of N-terminal his-tagged WDR5 (1 to 334 residues) (unknown origin)/Biotin tagged Myc (256-268 residues) (unknown origin) interaction measured after 1 hrs by HTRF assay; assay type: protein assay
# [3] = target: T2, Histone-lysine N-methyltransferase 2A/WDR5 (Homo sapiens) (UniProt P61964+Q03164); test: Inhibition of WDR5 (unknown origin)/MLL (unknown origin) interaction by NanoBiT assay; assay type: protein assay
# HL-60 [4] = test: Downregulation of RPL17 gene expression in human HL-60 cells at 10 uM measured after 24 hrs by RT-qPCR assay; assay type: functional, cell-based
# HL-60 [5] = test: Downregulation of RPL23 gene expression in human HL-60 cells at 10 uM measured after 24 hrs by RT-qPCR assay; assay type: functional, cell-based
# HL-60 [6] = test: Downregulation of RPL35 gene expression in human HL-60 cells at 10 uM measured after 24 hrs by RT-qPCR assay; assay type: functional, cell-based
# HL-60 [7] = test: Downregulation of RPL37A gene expression in human HL-60 cells at 10 uM measured after 24 hrs by RT-qPCR assay; assay type: functional, cell-based
# SHP77 = test: Antiproliferative activity against human SHP77 cells assessed as cell growth inhibition measured after 72 hrs by CellTier-Glo assay; assay type: functional
# NCI-H520 = test: Antiproliferative activity against human NCI-H520 cells assessed as cell growth inhibition measured after 72 hrs by CellTier-Glo assay; assay type: functional
# NCI-H1650 = test: Antiproliferative activity against human NCI-H1650 cells assessed as cell growth inhibition measured after 72 hrs by CellTier-Glo assay; assay type: functional
# HL-60 [8] = test: Effect on MCM4 mRNA expression in human HL-60 cells measured after 24 hrs by RT-qPCR assay; assay type: functional, cell-based
# HL-60 [9] = test: Effect on MCM10 mRNA expression in human HL-60 cells measured after 24 hrs by RT-qPCR assay; assay type: functional, cell-based
# HL-60 [10] = test: Effect on Cdc20 mRNA expression in human HL-60 cells measured after 24 hrs by RT-qPCR assay; assay type: functional, cell-based
# HL-60 [11] = test: Effect on AURKB mRNA expression in human HL-60 cells measured after 24 hrs by RT-qPCR assay; assay type: functional, cell-based
# [12] = Microsomal stability in mouse liver microsome assessed as intrinsic clearance; assay type: ADME; settings: liver microsomes, read-out: CLH
# [13] = Apparent permeability of the compound in dog MDCKII-LE cells measured upto 1.5 hrs; assay type: ADME, cell-based, Canis lupus familiaris; settings: MDCK
# HL-60 [14] = test: Downregulation of RPL17 gene expression in human HL-60 cells measured after 24 hrs by RT-qPCR assay; assay type: functional, cell-based; settings: dose 3-10 µM
# WDR5-MYC [15] = target: T1, WDR5-MYC; test: Inhibition of WDR5 (unknown origin)/MYC (unknown origin) interaction; assay type: protein assay
# [16] = target: T3, WD repeat-containing protein 5 (Homo sapiens, UniProt P61964); test: Inhibition of N-terminal his-tagged WDR5 (1 to 334 residues) (unknown origin) measured after 10 mins by HTRF assay
# [17] = target: T3, WD repeat-containing protein 5; test: Inhibition of N-terminal his-tagged WDR5 (1 to 334 residues) (unknown origin) measured after 30 mins by HTRF assay
# [18] = target: T3, WD repeat-containing protein 5; test: Inhibition of N-terminal his-tagged WDR5 (1 to 334 residues) (unknown origin) measured after 90 mins by HTRF assay
# [19] = target: T3, WD repeat-containing protein 5; test: Inhibition of N-terminal his-tagged WDR5 (1 to 334 residues) (unknown origin) measured after 180 mins by HTRF assay
# [20] = target: T3, WD repeat-containing protein 5; test: Inhibition of N-terminal his-tagged WDR5 (1 to 334 residues) (unknown origin) measured after 360 mins by HTRF assay
# [21] = target: T3, WD repeat-containing protein 5; test: Inhibition of N-terminal his-tagged WDR5 (1 to 334 residues) (unknown origin) measured after 10 mins by HTRF assay relative to control
# [22] = target: T3, WD repeat-containing protein 5; test: Inhibition of N-terminal his-tagged WDR5 (1 to 334 residues) (unknown origin) measured after 30 mins by HTRF assay relative to control
# [23] = target: T3, WD repeat-containing protein 5; test: Inhibition of N-terminal his-tagged WDR5 (1 to 334 residues) (unknown origin) measured after 90 mins by HTRF assay relative to control
# [24] = target: T3, WD repeat-containing protein 5; test: Inhibition of N-terminal his-tagged WDR5 (1 to 334 residues) (unknown origin) measured after 180 mins by HTRF assay relative to control
# [25] = target: T3, WD repeat-containing protein 5; test: Inhibition of N-terminal his-tagged WDR5 (1 to 334 residues) (unknown origin) measured after 360 mins by HTRF assay relative to control
# WDR5-MYC (Homo sapiens) = WDR5-MYC (Homo sapiens) (UniProt P61964+P01106); test: Inhibition of flag-tagged WDR5/endogenous MYC interaction in HEK293T cells overexpressing flag tagged WDR5 incubated for 6 hrs by coimmunoprecipitation assay; assay type: cell-based; settings: dose 5-30 µM
# HEK293T = test: Inhibition of RBBP5/flag-tagged WDR5 interaction in HEK293T cells overexpressing flag-tagged WDR5 upto 30 uM incubated for 6 hrs by coimmunoprecipitation assay; assay type: cell-based; settings: Homo sapiens
# [26] = target: T2, Histone-lysine N-methyltransferase 2A/WDR5 (Homo sapiens); test: Inhibition of MLL/flag-tagged WDR5 interaction in HEK293T cells overexpressing flag-tagged WDR5 upto 30 uM incubated for 6 hrs by coimmunoprecipitation assay; assay type: cell-based
# WDR5-MYC [27] = target: T1, WDR5-MYC; test: Inhibition of his-tagged WDR5/flag-tagged MYC interaction overexpressed in HEK293T cells incubated for 5 hrs; assay type: cell-based
# HL-60 [28] = test: Downregulation of RPL23 gene expression in human HL-60 cells measured after 24 hrs by RT-qPCR assay; assay type: functional, cell-based; settings: dose 3-10 µM
# HL-60 [29] = test: Downregulation of RPL35 gene expression in human HL-60 cells measured after 24 hrs by RT-qPCR assay; assay type: functional, cell-based; settings: dose 3-10 µM
# HL-60 [30] = test: Downregulation of RPL37A gene expression in human HL-60 cells measured after 24 hrs by RT-qPCR assay; assay type: functional, cell-based; settings: dose 3-10 µM
smiles,measurement,setting,value
Cc1cc(=O)c(C(=O)N(C)Cc2c(F)cc(C3CCCOC3)cc2F)nn1-c1ccccc1 (stereo unspecified),GI50,COR-L279,> 50 µM
same,GI50,Daudi,> 50 µM
same,GI50,Ramos,> 50 µM
same,GI50,NB-4,> 50 µM
same,GI50,HL-60 [1],> 50 µM
same,IC50,WDR5-MYC [2],43.4 µM
same,inhibition,[3],inactive
same,Activity,HL-60 [4],inactive
same,Activity,HL-60 [5],inactive
same,Activity,HL-60 [6],inactive
same,Activity,HL-60 [7],inactive
same,GI50,SHP77,> 50 µM
same,GI50,NCI-H520,> 50 µM
same,GI50,NCI-H1650,> 50 µM
same,Activity,HL-60 [8],inactive
same,Activity,HL-60 [9],inactive
same,Activity,HL-60 [10],inactive
same,Activity,HL-60 [11],inactive
CCCC[C@@H](Cc1c(F)cc(-c2cccc(S(=O)(=O)F)c2)cc1F)C(=O)Nc1nnn[nH]1,microsomal CLint,[12],150 µL/min/mg
same,Papp at 1.5 h,[13],0.96 ×10⁻⁶ cm/s
Cc1cc(=O)c(C(=O)NCc2c(F)cc(N3CC[C@@H](F)C3)cc2F)nn1-c1cccc(CC(=O)O)c1,IC50,WDR5-MYC [2],1.43 µM
Cc1cc(=O)c(C(=O)NCc2c(F)cc(-c3cccc(C(=O)O)c3)cc2F)nn1-c1ccccc1,IC50,WDR5-MYC [2],2.48 µM
Cc1cc(=O)c(C(=O)NCc2c(F)cc(-c3cccc(S(=O)(=O)O)c3)cc2F)nn1-c1ccccc1,IC50,WDR5-MYC [2],0.91 µM
Cc1cc(=O)c(C(=O)NCc2c(F)cc(-c3cccc(C(C)O)c3)cc2F)nn1-c1ccccc1 (stereo unspecified),IC50,WDR5-MYC [2],5.51 µM
Cc1cc(=O)c(C(=O)NCc2c(F)cc(N3CC[C@@H](F)C3)cc2F)nn1-c1cccc(C(N)=O)c1,IC50,WDR5-MYC [2],1.93 µM
Cc1cc(=O)c(C(=O)NCc2c(F)cc(N3CCCC(C)(C)C3)cc2F)nn1-c1ccccc1,IC50,WDR5-MYC [2],2.46 µM
CC(=O)c1cccc(-c2cc(F)c(CNC(=O)c3nn(-c4ccccc4)c(C)cc3=O)c(F)c2)c1,IC50,WDR5-MYC [2],8.13 µM
Cc1cc(=O)c(C(=O)NCc2c(F)cc(N3CC[C@@H](F)C3)cc2F)nn1-c1cccc(C(=O)O)c1,IC50,WDR5-MYC [2],1.23 µM
Cc1cc(=O)c(C(=O)NCc2c(F)cc(N3CC[C@H](F)C3)cc2F)nn1-c1cccc(C(=O)O)c1,IC50,WDR5-MYC [2],0.64 µM
Cc1cc(=O)c(C(=O)NCc2c(F)cc(-c3cccc(S(=O)(=O)F)c3)cc2F)nn1-c1cccc(C(=O)O)c1,IC50,WDR5-MYC [2],0.19 µM
Cc1cc(=O)c(C(=O)NCc2c(F)cc(-c3cccc(S(=O)(=O)F)c3)cc2F)nn1-c1ccccc1,GI50,COR-L279,4.2 µM
same,GI50,Daudi,15.4 µM
same,GI50,Ramos,4.3 µM
same,GI50,NB-4,7.1 µM
same,GI50,HL-60 [1],4.6 µM
same,microsomal CLint,[12],46.9 µL/min/mg
same,Activity,HL-60 [14],Dose-Dependent Effect
same,Papp at 1.5 h,[13],1.77 ×10⁻⁶ cm/s
same,IC50,WDR5-MYC [15],5.8 µM
same,IC50,WDR5-MYC [2],0.39 µM
same,IC50,[16],2.09 µM
same,IC50,[17],0.79 µM
same,IC50,[18],0.3 µM
same,IC50,[19],0.17 µM
same,IC50,[20],0.1 µM
same,inhibition,[21],59.3%
same,inhibition,[22],64%
same,inhibition,[23],78.5%
same,inhibition,[24],88.5%
same,inhibition,[25],91.9%
same,inhibition,WDR5-MYC (Homo sapiens),Dose-Dependent Effect
same,inhibition,HEK293T,inactive
same,inhibition,[26],inactive
same,IC50,WDR5-MYC [27],4.8 µM
same,inhibition,[3],inactive
same,Activity,HL-60 [28],Dose-Dependent Effect
same,Activity,HL-60 [29],Dose-Dependent Effect
same,Activity,HL-60 [30],Dose-Dependent Effect
same,GI50,SHP77,16.6 µM
same,GI50,NCI-H520,9.4 µM
same,GI50,NCI-H1650,22.6 µM
same,Activity,HL-60 [8],inactive
same,Activity,HL-60 [9],inactive
same,Activity,HL-60 [10],inactive
same,Activity,HL-60 [11],inactive
Cc1cc(=O)c(C(=O)NCc2c(F)cc(-c3cccc(CO)c3)cc2F)nn1-c1ccccc1,IC50,WDR5-MYC [2],5.69 µM
